For test [1], the system named is MDA-MB-453 cell line (FGFR4-Y367C). Kind of test: Cancer cell line cell viability assay (Cell Titer-Glo), 120 hr. To be noted: Homo sapiens. It is filed as cell-based. In a few lines:
(§1)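 5,000-20,000 cells/well o/n; cpd 9-pt 4x dil from 3 μM, n=3; 37° C/5% CO2; CTG 2.0 lumi; % DMSO ctrl; 4PL IC50.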
In general terms: In ATP-based viability assays light output follows the ATP content of the culture.

Test [2] relates to RT112/84 cell line (FGFR3-fusion). Kind of test: Cancer cell line cell viability assay (Cell Titer-Glo), 72 hr. Type of test: cell-based. The settings on record: Homo sapiens, RT112/84, RT112/84 cell line (FGFR3-fusion). In outline: as §1
Test [3] concerns KATO-III cell line (FGFR2 amplification). Described as above. It is filed as cell-based. The settings on record: Homo sapiens, KATO III. In outline:
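Luminescent ATP read-out (Cell Titer-Glo 2.0) after compound exposure, normalised to DMSO-only wells. Dosing: 9 concentrations, 4-fold steps, top 3 μM, triplicates. IC50 derived by log(inhibitor) vs. response 4-parameter fit.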

Test [4] has as its system KG-1 cell line (FGFR 1-fusion). The description is as above. To be noted: Homo sapiens, KG-1, KG-1 cell line (FGFR1-fusion). It is filed as cell-based. In a few lines: as §1
Test [5] deals with T1, FGFR3 (V555M) (Homo sapiens, UniProt P22607, V555M).
T1 construct: made in house; host or cells: E. coli (BL21-derived), T7 phage
T1 sequence (P22607 23-806 V555M): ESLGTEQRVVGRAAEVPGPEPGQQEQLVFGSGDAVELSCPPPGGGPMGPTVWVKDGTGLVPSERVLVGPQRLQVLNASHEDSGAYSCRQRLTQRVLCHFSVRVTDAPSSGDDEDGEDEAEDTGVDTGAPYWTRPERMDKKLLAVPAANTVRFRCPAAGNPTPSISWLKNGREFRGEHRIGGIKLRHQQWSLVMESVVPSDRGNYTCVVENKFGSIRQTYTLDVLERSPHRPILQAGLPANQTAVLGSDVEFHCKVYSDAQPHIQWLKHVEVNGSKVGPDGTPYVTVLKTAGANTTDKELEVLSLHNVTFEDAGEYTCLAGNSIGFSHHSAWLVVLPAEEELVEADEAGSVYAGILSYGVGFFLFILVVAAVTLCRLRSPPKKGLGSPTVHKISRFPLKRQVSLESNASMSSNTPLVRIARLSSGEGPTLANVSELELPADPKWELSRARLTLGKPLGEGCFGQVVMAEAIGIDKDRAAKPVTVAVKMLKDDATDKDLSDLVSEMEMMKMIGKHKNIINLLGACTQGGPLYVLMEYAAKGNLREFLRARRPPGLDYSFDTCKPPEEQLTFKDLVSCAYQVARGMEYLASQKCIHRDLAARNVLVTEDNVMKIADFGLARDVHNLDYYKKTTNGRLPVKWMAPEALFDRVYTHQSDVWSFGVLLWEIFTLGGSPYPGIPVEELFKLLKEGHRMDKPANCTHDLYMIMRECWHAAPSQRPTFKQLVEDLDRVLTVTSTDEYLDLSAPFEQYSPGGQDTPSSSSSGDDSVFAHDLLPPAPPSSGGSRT
Kind of test: Kinase binding assay (kinase-tagged T7 phage, affinity beads, qPCR), Kd. The settings on record: V555M mutant; read-out: FGFR3 (V555M) (Kd nM). In outline: (§2)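 Competition binding; kinase-tagged T7 phage lysate vs immobilised biotinylated ligand on streptavidin beads, 0.9% DMSO final. 11-pt 3-fold dilutions, 3 DMSO controls. qPCR of eluted kinase; Kd by Hill fit, slope −1.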

Test [6] concerns the target T2, FGFR4 (Homo sapiens, UniProt P22455).
T2 construct: made in house; host or cells: E. coli (BL21-derived), T7 phage
The description is as above. To be noted: read-out: FGFR4 (Kd nM). In a few lines: as §2

In test [7] the target is T3, FGFR1 (Homo sapiens, UniProt P11362).
T3 construct: made in house; host or cells: E. coli (BL21-derived), T7 phage
T3 sequence (P11362 22-822): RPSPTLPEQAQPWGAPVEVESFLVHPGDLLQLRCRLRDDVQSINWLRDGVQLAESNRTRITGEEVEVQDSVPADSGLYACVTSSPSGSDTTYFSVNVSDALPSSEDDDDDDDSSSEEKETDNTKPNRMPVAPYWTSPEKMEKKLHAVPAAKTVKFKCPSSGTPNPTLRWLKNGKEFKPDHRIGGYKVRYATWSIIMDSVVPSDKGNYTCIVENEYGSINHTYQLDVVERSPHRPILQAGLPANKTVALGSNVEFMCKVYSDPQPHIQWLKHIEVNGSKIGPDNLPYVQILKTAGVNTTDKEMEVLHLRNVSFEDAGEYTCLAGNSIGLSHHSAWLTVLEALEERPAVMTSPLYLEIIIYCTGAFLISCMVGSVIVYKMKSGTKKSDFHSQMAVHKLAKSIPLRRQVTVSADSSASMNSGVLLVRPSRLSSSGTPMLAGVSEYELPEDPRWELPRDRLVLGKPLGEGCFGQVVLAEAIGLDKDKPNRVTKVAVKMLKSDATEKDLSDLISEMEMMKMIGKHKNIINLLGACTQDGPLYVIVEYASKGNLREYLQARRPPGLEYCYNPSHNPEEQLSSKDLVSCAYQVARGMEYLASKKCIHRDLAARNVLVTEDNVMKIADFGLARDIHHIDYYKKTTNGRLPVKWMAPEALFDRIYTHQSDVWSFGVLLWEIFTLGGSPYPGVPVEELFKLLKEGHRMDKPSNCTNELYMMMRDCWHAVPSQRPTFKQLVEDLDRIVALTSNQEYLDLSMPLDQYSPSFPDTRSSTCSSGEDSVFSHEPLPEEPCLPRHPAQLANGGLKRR
The description is as above. The settings on record: read-out: FGFR1 (Kd nM). In outline: as §2

The target in test [8] is T4, FGFR3 (Homo sapiens, UniProt P22607).
T4 construct: made in house; host or cells: E. coli (BL21-derived), T7 phage
T4 sequence (P22607 23-806): as the sequence (P22607 23-806 V555M) above, with M533V counted along it
The description is as above. The settings on record: read-out: FGFR3 (Kd nM). In a few lines: as §2

The target in test [9] is T5, FGFR2 (Homo sapiens, UniProt P21802).
T5 construct: made in house; host or cells: E. coli (BL21-derived), T7 phage
T5 sequence (P21802 22-821): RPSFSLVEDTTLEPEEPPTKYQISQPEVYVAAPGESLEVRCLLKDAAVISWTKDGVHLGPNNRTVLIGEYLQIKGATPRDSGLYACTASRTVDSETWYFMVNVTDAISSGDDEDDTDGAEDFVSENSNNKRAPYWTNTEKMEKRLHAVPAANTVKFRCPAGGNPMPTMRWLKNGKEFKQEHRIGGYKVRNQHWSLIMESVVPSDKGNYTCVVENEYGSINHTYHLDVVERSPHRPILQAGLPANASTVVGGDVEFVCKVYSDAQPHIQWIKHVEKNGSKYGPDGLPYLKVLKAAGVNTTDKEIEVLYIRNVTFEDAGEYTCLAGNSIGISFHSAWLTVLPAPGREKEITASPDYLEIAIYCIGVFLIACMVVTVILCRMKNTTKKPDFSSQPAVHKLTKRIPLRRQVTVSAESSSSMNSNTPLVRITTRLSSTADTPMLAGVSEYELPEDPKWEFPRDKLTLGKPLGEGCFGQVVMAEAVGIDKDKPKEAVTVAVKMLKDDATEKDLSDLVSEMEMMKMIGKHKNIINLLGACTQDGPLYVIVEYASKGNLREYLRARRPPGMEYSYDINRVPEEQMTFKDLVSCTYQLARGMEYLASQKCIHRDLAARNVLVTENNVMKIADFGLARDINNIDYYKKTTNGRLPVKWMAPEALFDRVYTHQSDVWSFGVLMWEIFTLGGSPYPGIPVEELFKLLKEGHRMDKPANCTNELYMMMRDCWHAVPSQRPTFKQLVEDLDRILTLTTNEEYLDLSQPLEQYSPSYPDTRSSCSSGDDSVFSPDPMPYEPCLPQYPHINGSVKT
The test is described as above. The settings on record: read-out: FGFR2 (Kd nM). In a few lines:
as §2

Bounds are passed on as bounds.

T2 sequence (P22455 22-802): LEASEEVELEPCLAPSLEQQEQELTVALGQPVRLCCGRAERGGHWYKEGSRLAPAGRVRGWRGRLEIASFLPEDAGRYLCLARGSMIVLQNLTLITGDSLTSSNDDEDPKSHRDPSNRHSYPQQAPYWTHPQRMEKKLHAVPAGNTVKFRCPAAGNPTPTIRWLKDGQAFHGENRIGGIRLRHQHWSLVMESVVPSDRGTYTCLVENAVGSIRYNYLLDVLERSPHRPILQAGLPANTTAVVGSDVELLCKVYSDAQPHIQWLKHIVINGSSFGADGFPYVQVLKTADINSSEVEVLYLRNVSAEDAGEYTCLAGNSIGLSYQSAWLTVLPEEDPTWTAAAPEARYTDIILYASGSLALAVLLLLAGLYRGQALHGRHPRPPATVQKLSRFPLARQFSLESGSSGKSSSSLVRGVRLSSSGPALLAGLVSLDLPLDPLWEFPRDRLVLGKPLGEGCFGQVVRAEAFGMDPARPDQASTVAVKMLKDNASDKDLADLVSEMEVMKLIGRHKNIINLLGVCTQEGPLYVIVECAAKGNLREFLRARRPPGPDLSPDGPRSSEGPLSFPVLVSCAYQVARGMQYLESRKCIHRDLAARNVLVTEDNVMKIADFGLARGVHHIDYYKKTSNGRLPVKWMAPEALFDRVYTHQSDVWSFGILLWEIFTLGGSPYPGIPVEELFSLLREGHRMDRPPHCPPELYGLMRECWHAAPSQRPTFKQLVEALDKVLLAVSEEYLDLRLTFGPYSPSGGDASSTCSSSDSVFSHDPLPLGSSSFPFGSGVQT

For `C[C@@H](Oc1ccc2[nH]nc(-c3cnc(N4CC(C)(NC(=O)CN(C)C)C4)c(F)c3)c2c1)c1c(Cl)cncc1Cl` (stereo in doubt) [Example 156, N-(1-(5-(5-(1-(3,5-dichloropyridin-4-yl)ethoxy)-1H-indazol-3-yl)-3-fluoropyridin-2-yl)-3-methylazetidin-3-yl)-2-(dimethylamino)-acetamide], the IC50 (in general, the concentration at which inhibition is half-maximal) in test [1] was 0.05 to 0.2 µM; in test [2], 0.0001 to 0.05 µM; in test [3] it was 0.0001 to 0.05 µM; in test [4], 0.05 to 0.2 µM. Also, the Kd in test [5], in test [6], in test [7], in test [8] and in test [9] was 1 to 50 nM each time.
In the case of `C[C@@H]1[C@@H](CS(C)(=O)=O)CN1c1ncc(-c2n[nH]c3ccc(O[C@H](C)c4c(Cl)cncc4Cl)cc23)cc1F` [Example 207, 5-((R)-1-(3,5-dichloropyridin-4-yl)ethoxy)-3-(5-fluoro-6-((2R,3S)-2-methyl-3-((methylsulfonyl)methyl)azetidin-1-yl)pyridin-3-yl)-1H-indazole], the IC50 in [1] fell in the range of 0.05 to 0.2 µM; in [2] it was 0.0001 to 0.05 µM; in [3], 0.05 to 0.2 µM; in [4], 0.05 to 0.2 µM. The Kd in test [5], in [6], in test [7], in [8] and in [9] was 1 to 50 nM in each case.
Regarding `CNC1(C)CN(c2ccc(-c3n[nH]c4ccc(O[C@H](C)c5c(Cl)cnc(C)c5Cl)cc34)cn2)C1` [Example 76, 1-[5-[5-[(1R)-1-(3,5-dichloro-2-methyl-4-pyridyl)ethoxy]-1H-indazol-3-yl]-2-pyridyl]-N,3-dimethyl-azetidin-3-amine], the IC50 in test [1] fell in the range of 0.2 to 1 µM; in test [2], 0.0001 to 0.05 µM; in test [3], 0.05 to 0.2 µM; in [4], 0.05 to 0.2 µM. The Kd in [5], in [6], in [7], in test [8] and in test [9] was 1 to 50 nM in each case.
Take `CNC1(C)CN(c2ncc(-c3n[nH]c4ccc(O[C@@H](C)c5c(Cl)cncc5Cl)cc34)cc2F)C1` [Example 205, 1-[5-[5-[(1S)-1-(3,5-dichloro-4-pyridyl)ethoxy]-1H-indazol-3-yl]-3-fluoro-2-pyridyl]-N,3-dimethyl-azetidin-3-amine]: the IC50 in [1] was > 1 µM; in test [2] it was > 1 µM; in [3], 0.2 to 1 µM; in test [4], > 1 µM. Moreover, the Kd (commonly a measure of binding affinity in units of concentration) was 1 to 50 nM in test [5]; 50 to 300 nM in test [6]; 50 to 300 nM in test [7]; 50 to 300 nM in [8]; 300 to 1000 nM in test [9].
In the case of `C[C@@H](Oc1ccc2[nH]nc(-c3ccc(N4CC(C)(NCC5CC5)C4)nc3F)c2c1)c1c(Cl)cncc1Cl` [Example 237, (R)—N-(cyclopropylmethyl)-1-(5-(5-(1-(3,5-dichloropyridin-4-yl)ethoxy)-1H-indazol-3-yl)-6-fluoropyridin-2-yl)-3-methylazetidin-3-amine], the IC50 in test [1] was 0.05 to 0.2 µM; in [2], 0.0001 to 0.05 µM; in test [3], 0.0001 to 0.05 µM; in [4], 0.0001 to 0.05 µM. Also, the Kd in [5], in [6], in test [7], in test [8] and in test [9] was 1 to 50 nM throughout.
In the case of `Cc1ncc(Cl)c([C@@H](C)Oc2ccc3[nH]nc(-c4ccc(N5CC(C)(N6CCOCC6)C5)nc4)c3c2)c1Cl` [Example 77, 4-[1-[5-[5-[(1R)-1-(3,5-dichloro-2-methyl-4-pyridyl)ethoxy]-1H-indazol-3-yl]-2-pyridyl]-3-methyl-azetidin-3-yl]morpholine], the IC50 in test [1] was 0.2 to 1 µM; in test [2], 0.0001 to 0.05 µM; in test [3] it was 0.05 to 0.2 µM; in [4], 0.2 to 1 µM. Further, the Kd in [5], in test [6], in [7], in test [8] and in test [9] was 1 to 50 nM each time.
In the case of `C[C@@H](Oc1ccc2[nH]nc(-c3ccc(N4CC(C)(N5C[C@@H]6C[C@H]5CO6)C4)nc3)c2c1)c1c(Cl)cncc1Cl` [Example 229, (1S,4S)-5-(1-(5-(5-((R)-1-(3,5-dichloropyridin-4-yl)ethoxy)-1H-indazol-3-yl)pyridin-2-yl)-3-methylazetidin-3-yl)-2-oxa-5-aza-bicyclo[2.2.1]hep-tane], the IC50 in test [1] lay within 0.05 to 0.2 µM; in test [2], 0.0001 to 0.05 µM; in test [3], 0.0001 to 0.05 µM; in test [4] it was 0.05 to 0.2 µM. For the same compound, the Kd in [5], in test [6], in [7], in test [8] and in [9] was 1 to 50 nM each time.
Regarding `C[C@@H](Oc1ccc2[nH]nc(-c3ccc(N4CC(C)(CS(C)(=O)=O)C4)nc3)c2c1)c1c(Cl)cncc1Cl` [Example 181, (R)-5-(1-(3,5-dichloropyridin-4-yl)ethoxy)-3-(6-(3-methyl-3-((methylsulfonyl)-methyl)azetidin-1-yl)pyridin-3-yl)-1H-indazole], the IC50 fell in the range of 0.05 to 0.2 µM in [1], 0.0001 to 0.05 µM in test [2], 0.0001 to 0.05 µM in test [3] and 0.05 to 0.2 µM in test [4]. Further, the Kd in test [5], in [6], in test [7], in test [8] and in test [9] was 1 to 50 nM throughout.
For `CC(C)CNC1(C)CN(c2ccc(-c3n[nH]c4ccc(O[C@H](C)c5c(Cl)cncc5Cl)cc34)cn2)C1` [Example 224, (R)-1-(5-(5-(1-(3,5-dichloropyridin-4-yl)ethoxy)-1H-indazol-3-yl)pyridin-2-yl)-N-isobutyl-3-methylazetidin-3-amine], the IC50 in test [1] is 0.05 to 0.2 µM; in test [2], 0.0001 to 0.05 µM; in test [3], 0.0001 to 0.05 µM; in test [4], 0.05 to 0.2 µM. Moreover, the Kd in [5], in test [6], in test [7], in test [8] and in [9] was 1 to 50 nM each time.
As to `Cc1ncc(Cl)c([C@@H](C)Oc2ccc3[nH]nc(-c4ccc(N5CC(C)(N(C)C)C5)nc4)c3c2)c1Cl` [Example 78, 1-[5-[5-[(1R)-1-(3,5-dichloro-2-methyl-4-pyridyl)ethoxy]-1H-indazol-3-yl]-2-pyridyl]-N,N,3-trimethyl-azetidin-3-amine], the IC50 in [1] lay in the range of 0.2 to 1 µM; in test [2] it was 0.0001 to 0.05 µM; in test [3], 0.05 to 0.2 µM; in [4], 0.2 to 1 µM. Moreover, the Kd in test [5], in test [6], in test [7], in [8] and in test [9] was 1 to 50 nM in each case.
With `CCCNC1(C)CN(c2ccc(-c3n[nH]c4ccc(O[C@H](C)c5c(Cl)cncc5Cl)cc34)cn2)C1` [Example 227, 1-[5-[5-[(1R)-1-(3,5-dichloro-4-pyridyl)ethoxy]-1H-indazol-3-yl]-2-pyridyl]-3-methyl-N-propyl-azetidin-3-amine], the IC50 in test [1] lay within 0.05 to 0.2 µM; in test [2] it was 0.0001 to 0.05 µM; in test [3] it was 0.0001 to 0.05 µM; in [4], 0.05 to 0.2 µM. The Kd in test [5], in test [6], in [7], in test [8] and in test [9] was 1 to 50 nM in each case.
With `C[C@@H](Oc1ccc2[nH]nc(-c3cnc(N4CC(C)(NCC5CC5)C4)c(F)c3)c2c1)c1c(Cl)cncc1Cl` [Example 106, (R)-N-(cyclopropylmethyl)-1-(5-(5-(1-(3,5-dichloropyridin-4-yl)ethoxy)-1H-indazol-3-yl)-3-fluoropyridin-2-yl)-3-methylazetidin-3-amine], the IC50 lay within 0.05 to 0.2 µM in [1], 0.0001 to 0.05 µM in [2], 0.05 to 0.2 µM in test [3] and 0.05 to 0.2 µM in test [4]. Moreover, the Kd in [5], in test [6], in [7], in test [8] and in [9] was 1 to 50 nM throughout.

Source of the values: patent US20250368666A1, “INDAZOLE COMPOUNDS” (TYRA BIOSCIENCES, INC., priority 2022, published 2025).
